Where a SMILES comes first, the peptide text is derived from it.
Experiments:
sepsis (CLP) = experiment: CLP with or without quercetin (HSP 70 inhibitor): survival, lung HSP/NOS, metabolism, TNF; format: in vivo, Sprague-Dawley rats; details: quercetin 400 mg/kg IP 6 hours pre-CLP
Method: Methods: Male Sprague-Dawley rats were divided into 5 groups. Two groups were treated with 400 mg/kg of quercetin (Q) IP (HSP 70 inhibitor) 6 hours pre-CLP. […] The final group (CONT, n=6) received no treatment. Five-day survival was monitored. In separate studies, lung was harvested 24-hours post-CLP and tissue metabolism analyzed by 31P- and 1H-MRS. A final study analyzed blood for TNF- at 6 hours post-CLP and lung tissue 6 hours post-CLP for HSP-70, iNOS, eNOS, and activated heat shock factor-1 (HSF-1).

[1] = tested on: polymicrobial sepsis and peritonitis (CLP); experiment: CLP peritonitis/polymicrobial sepsis, GLN 30 minutes after induction, with or without quercetin; format: in vivo, rat; details: quercetin with GLN
From the text: Cecal ligation and puncture (CLP) in the rat was chosen as the appropriate model.

[2] = tested on: polymicrobial sepsis (CLP); experiment: Cecal ligation and puncture (CLP): lung and heart tissue metabolism by MRS, survival; format: in vivo, Sprague-Dawley rats; details: single large dose following onset of sepsis, CLP rat
Method: Survival was monitored for five days. In a separate group of animals (n=4/group), lung and heart tissue was harvested 24 hours post-CLP and tissue metabolism was analyzed by ^1H-MRS and ^31P-MRS.

[3] = tested on: myocardial ischemia/reperfusion injury; details: single dose 18 hours prior to myocardial injury, rat
[4] = tested on: polymicrobial sepsis (2CLP); experiment: Cecal-ligation and double-puncture (2CLP) sepsis: survival, cytokines, lung HSP 72; format: in vivo, Sprague-Dawley rats
From the text: Further, increased Interleukin-18 (IL-18) levels appear to play a critical role in cytokine-induced organ failure and can be predictive of mortality in sepsis patients.
Increased Interleukin-18 (IL-18) levels appear to play a critical role in cytokine-induced organ failure and can be predictive of mortality in sepsis patients.

congestive heart failure = details: 4 weeks of supplementation (Azuma et al 1983); cited from earlier work

Q: What does the source list for `O=c1c(O)c(-c2ccc(O)c(O)c2)oc2cc(O)cc(O)c12` [Q, quercetin, reference compound]?
A: effect on TNF- or NOS expression (sepsis (CLP)): No Q effect; HSF-1 activation and subsequent HSP70 expression (sepsis (CLP); with GLN): Inhibition; effect on GLN's improvements in lung tissue metabolic dysfunction (sepsis (CLP); with GLN): blocked; effect on GLN's survival benefit (sepsis (CLP); with GLN): abrogated; effect on GLN attenuation of tissue metabolic dysfunction [1]: inhibited; effect on GLN improvement of survival [1]: inhibited; effect on GLN-enhanced HSP 70 expression and HSF-1 activation [1]: blocked

Q: For `C[C@H](N)C(=O)N[C@@H](CCC(N)=O)C(=O)O` [alanyl-glutamine] (H-Ala-Gln-OH), which “cellular metabolism in the lung” value [2] is on record?
A: improve

Q: And the “myocardial function following ischemia and reperfusion injury” value [3]?
A: improve myocardial function

Q: And the “lung HSP 72 expression versus control” value ([4]; following 2CLP)?
A: restore normal heat shock protein expression

Q: And the inflammatory cytokine release ([4]; single large dose following onset of sepsis, CLP rat)?
A: attenuate

Q: For `NCCS(=O)(=O)O` [taurine], which “dyspnea, palpitation, crackles, edema, and New York Heart Association functional class” value (congestive heart failure) is on record?
A: highly significant improvement
